Entries after “also recorded” stand apart in the source; their conditions may differ. Like-named read-outs stand apart in the source and are kept apart here.
Tests used:
[1] = biological target: T1, Ca^2+-bound EF (EF domain of LPL) (Homo sapiens, UniProt P13796); test: Surface plasmon resonance (SPR), peptides binding to immobilized EF
T1 construct: His-tag (with TEV protease cleavage site) (N, cleaved yes); made in house; host or cells: E. coli BL21 (DE3)
T1 sequence (P13796 1-82 limits assumed): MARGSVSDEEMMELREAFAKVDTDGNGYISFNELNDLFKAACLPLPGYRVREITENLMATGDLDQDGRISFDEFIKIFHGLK
Protocol: The binding between Ca^2+-bound LPL-EF and a synthetic peptide corresponding to H5 (Ac-[…]-NH2) was evaluated by SPR using a BIAcore X100 instrument (GE Healthcare) and was compared to other peptides including the cytotoxic peptide melittin, and the CaM-target CaMKI and smMLCK peptides. Peptides used here were purchased as synthetic peptides with >95% purity from Genscript (San Diego, CA). The EF construct was immobilized via its sole cysteine residue (Cys42) onto a CM5 sensor chip (GE Healthcare) using thiol-coupling. The running buffer contained 10 mM Tris-HCl pH 7.5, 150 mM KCl, 1 mM CaCl2, and 0.005% (v/v) Tween-20. Different concentrations of the peptide sample were injected at a flow rate of 30 μL/min with a contact time of 1 min at 25 °C. The BIAevaluation software 2.0 (GE Healthcare) was used to process the SPR sensorgrams and for curve-fitting to obtain the dissociation constants (Kd’s). Two different concentrations in each experiment were injected twice to obtain the fitting errors (SEM).
SPR measurements for the interactions between EF and various peptides. The affinity fittings […]
The response units at 4 seconds after starting the injection were used for CaMKIp due to the nonspecific binding seen later during the injection, while the response units at 4 seconds before stopping the injection were used for the […]
(1 picture or pasted object on this page, not shown here)

normal cells = conditions: in words; no ref at the sentence; cited from earlier work
Description: Development of metastasis provides the most serious challenge for cancer treatment and is responsible for most cancer related deaths. A number of recent studies have shown that ectopically expressed LPL is largely responsible for this process. Therefore, LPL presents itself as a promising target for drug development to prevent the metastatic activity of the cancer cells. It is also well known that inhibition of fascin, another actin-bundling protein, is a viable approach to block tumor metastasis.

^15N-labeled EF = test: HSQC NMR titration of ^15N-labeled EF with peptide; assay type: binding, human; conditions: H5 peptide added to ^15N-labeled EF (Supplementary Fig. S8)
Protocol: The calcium-free samples of EF-H5, EF-H5-S5E, and EF contained 0.5–1.0 mM ^15N- or ^13C,^15N-labeled protein, 100 mM KCl, 20 mM Bis-Tris (pH 6.8), 1 mM EDTA, 0.03% NaN3, 10 mM ^2H-labelled dithiothreitol (^2H-DTT), and 0.5 mM 2,2-dimethyl-2- silapentane-5-sulfonate (DSS) in 99.99% D2O or 10% D2O/90% H2O. The calcium free non-labeled LPL-EF was also prepared in 99.99% D2O with the same buffer components. The calcium-bound form of those constructs were prepared in buffer containing ~1 mM ^15N- or ^13C,^15N-labelled protein, 100 mM KCl, 20 mM Bis-Tris (pH 6.8), 5 mM CaCl2, 0.03% NaN3, 0.5 mM DSS, and 10 mM ^2H-DTT in 99.99% D2O or 10% D2O/90% H2O. The calcium-bound non-labeled LPL-EF-H5 was also prepared in 99.99% D2O with the same buffer ingredients. DSS was used as a reference to obtain ^1H, ^15N and ^13C chemical shifts. All NMR spectra were processed with NMRPipe[71] and analyzed using NMRView[72].
All NMR experiments were performed with a Bruker Avance 700 or 600 MHz spectrometer at 25 °C. […] All NOESY experiments including three-dimensional ^15N-edited NOESY-HSQC and ^13C-edited NOESY-HSQC, and two-dimensional NOESY were measured with a mixing time of 120 ms. {^1H}-^15N heteronuclear NOE data were obtained using a 5 sec train of 120° proton pulses.

[2] = test system: ^15N-labeled ABD2 (residues 384–627); test: NMR titration of ^15N-labeled ABD2 with peptide; assay type: binding, human; conditions: synthetic H5 peptide titrated into ^15N-labeled ABD2 (Supplementary Fig. S5b)
[3] = EF immobilized via Cys42 on CM5 chip, 10 mM Tris-HCl pH 7.5, 150 mM KCl, 1 mM CaCl2, 0.005% Tween-20, 25 °C, response at 4 seconds before stopping the injection, fitting error SEM, read-out: KD

Row | Compound | Kd [1, 3] [nM] | Hemolysis and toxicity (normal cells) | HSQC spectral effect of H5 peptide on ^15N-labeled EF (^15N-labeled EF) | Kd ([1]; Ca^2+-bound EF, SPR, pH 7.5, 25 °C, read-out: Kd of H5 peptide for Ca^2+-bound EF (order of magnitude, discussion)) [nM] | Interaction with ABD2 (chemical shift changes) [2]
1 | CC[C@H](C)[C@H](NC(=O)CN)C(=O)NCC(=O)N[C@@H](C)C(=O)N[C@H](C(=O)N[C@@H](CC(C)C)C(=O)N[C@@H](CCCCN)C(=O)N[C@H](C(=O)N[C@@H](CC(C)C)C(=O)N[C@H](C(=O)N[C@H](C(=O)NCC(=O)N[C@@H](CC(C)C)C(=O)N1CCC[C@H]1C(=O)N[C@@H](C)C(=O)N[C@@H](CC(C)C)C(=O)N[C@H](C(=O)N[C@@H](CO)C(=O)N[C@@H](Cc1c[nH]c2ccccc12)C(=O)N[C@H](C(=O)N[C@@H](CCCCN)C(=O)N[C@@H](CCCNC(=N)N)C(=O)N[C@@H](CCCCN)C(=O)N[C@@H](CCCNC(=N)N)C(=O)N[C@@H](CCC(N)=O)C(=O)N[C@@H](CCC(N)=O)C(N)=O)[C@@H](C)CC)[C@@H](C)CC)[C@@H](C)O)[C@@H](C)O)C(C)C)C(C)C [Melittin, reference compound] | 158 | strong hemolytic peptide that is toxic to all normal cells | – | – | –
2 | Ac-STDVAKTFRKAINKKEGI-NH2 [H5p] | 3520 | – | intermediate exchange and resultant line broadening; also recorded: did not produce the same spectrum as EF-H5 | 1000 | no chemical shift changes were observed, indicating no interaction
